For orientation: EC50 means the concentration needed to bring the measured effect to its halfway point.

Like-named read-outs stand apart in the source and are kept apart here.

The target in the experiment is T1, human androgen receptor (hAR) (Homo sapiens, UniProt P10275).
T1 sequence (P10275 1-920): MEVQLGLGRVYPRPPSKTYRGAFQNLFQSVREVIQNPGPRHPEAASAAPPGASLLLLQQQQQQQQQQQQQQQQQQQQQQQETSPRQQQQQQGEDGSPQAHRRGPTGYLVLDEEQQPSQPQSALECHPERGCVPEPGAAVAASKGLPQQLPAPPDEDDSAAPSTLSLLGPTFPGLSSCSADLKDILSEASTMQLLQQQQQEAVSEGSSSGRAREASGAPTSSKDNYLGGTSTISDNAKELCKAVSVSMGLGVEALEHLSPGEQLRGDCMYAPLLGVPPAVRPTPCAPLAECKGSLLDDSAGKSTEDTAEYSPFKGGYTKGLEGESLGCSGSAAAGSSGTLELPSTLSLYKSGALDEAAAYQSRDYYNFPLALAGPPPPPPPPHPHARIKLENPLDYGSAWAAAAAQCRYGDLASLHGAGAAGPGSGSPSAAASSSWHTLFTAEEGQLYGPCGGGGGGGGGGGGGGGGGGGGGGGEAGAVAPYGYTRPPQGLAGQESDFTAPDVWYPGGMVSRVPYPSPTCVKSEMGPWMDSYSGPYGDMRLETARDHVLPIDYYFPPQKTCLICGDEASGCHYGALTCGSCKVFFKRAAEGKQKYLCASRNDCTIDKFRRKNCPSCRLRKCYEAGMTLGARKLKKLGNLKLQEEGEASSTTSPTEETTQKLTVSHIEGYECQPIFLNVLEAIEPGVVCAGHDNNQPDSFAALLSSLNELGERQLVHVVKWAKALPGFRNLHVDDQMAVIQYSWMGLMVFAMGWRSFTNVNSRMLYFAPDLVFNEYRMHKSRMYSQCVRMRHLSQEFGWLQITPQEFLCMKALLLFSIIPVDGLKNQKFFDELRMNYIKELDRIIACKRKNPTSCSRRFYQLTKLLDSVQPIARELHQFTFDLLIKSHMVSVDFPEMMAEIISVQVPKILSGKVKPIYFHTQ
Kind of experiment: Functional response test: hAR transactivation (luciferase reporter) in HALP2 cells. To be noted: for EC50: agonism, HALP2 cells (HeLa, hAR + ARE-luciferase), 20 hours at 37° C. In kind it is cell-based. The method in brief: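 HALP2 cells are HeLa cells stably transfected with CMV-driven hAR and a probasin ARE-luciferase reporter. They were seeded 24 h ahead, then exposed to compounds for 20 hours at 37° C in phenol red-free DMEM with 5% desteroided serum. Luciferase luminescence was measured after lysis; for antagonist mode, compounds were tested against increasing DHT concentrations.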
Background: A reporter such as luciferase makes a cellular process visible.

[1] abbreviates: antagonism, concentration which increases the EC50 of the DHT by a factor of 2, Schild regression, HALP2 cells.

`CN1C(=O)N(c2ccc(C#N)c(C(F)(F)F)c2)C(=O)C1(c1ccc(O)cc1)C(F)(F)F` (centres unmarked) [Example 179, 4-[2,5-dioxo-4-(4-hydroxyphenyl)-3-methyl-4-trifluoromethylimidazolidin-1-yl]-2-trifluoromethylbenzonitrile]: the “KSchild (nM) potency” value is listed as 15 nM.

For the compound `Cc1cc(O)ccc1C1(C)C(=O)N(c2ccc(C#N)c(C(F)(F)F)c2)C(=O)N1C` (centres unmarked) [Example 180, 4-[3,4-dimethyl-2,5-dioxo-4-(4-hydroxy-2-methylphenyl)imidazolidin-1-yl]-2-trifluoromethylbenzonitrile], the “KSchild (nM) potency” value is given as 8 nM.

Consider `CN1C(=O)N(c2ccc(C#N)c(C(F)(F)F)c2)C(=O)C12CCc1cc(O)ccc12` (centres unmarked) [Example 181, 4-[2′,3′-dihydro-2,5-dioxo-5′-hydroxy-3-methylspiro(imidazolidin-4,1′(1H)inden)-1-yl]-2-trifluoromethylbenzonitrile], for which the “KSchild (nM) potency” value was 6 nM.

Turning to `CCCC1(c2ccc(O)cc2)C(=O)N(c2ccc(C#N)c(C(F)(F)F)c2)C(=O)N1C` (centres unmarked) [Example 182.1, 4-[2,5-dioxo-4-(4-hydroxyphenyl)-3-methyl-4-propylimidazolidin-1-yl]-2-trifluoromethylbenzonitrile], the “KSchild (nM) potency” value is given as 15 nM.

With `CCC1(c2ccc(O)cc2)C(=O)N(c2ccc(C#N)c(C(F)(F)F)c2)C(=O)N1C` (centres unmarked) [Example 183, 4-[2,5-dioxo-4-ethyl-4-(4-hydroxyphenyl)-3-methylimidazolidin-1-yl]-2-trifluoromethylbenzonitrile], under setting [1], the “KSchild (nM) potency” value worked out at 2 nM.

`CN1C(=O)N(c2ccc(Cl)c(Cl)c2)C(=O)C1(CO)c1ccc(O)cc1` (centres unmarked) [Example 190, 1-(3,4-dichlorophenyl)-4-hydroxymethyl-4-(4-hydroxyphenyl)-3-methylimidazolidine-2,5-dione]: the “KSchild (nM) potency” value under setting [1] is on record as 0.37 nM.

On to `CSCN1C(=O)N(c2ccc(C#N)c(C(F)(F)F)c2)C(=O)C1(C)c1ccc(O)cc1` (centres unmarked) [Example 222.2], for which the “KSchild (nM) potency” value came out at 15 nM.

As to `CC1(c2ccc(O)cc2)C(=O)N(c2ccc(C#N)c(C(F)(F)F)c2)C(=O)N1CS(C)(=O)=O` (centres unmarked) [Example 222.3, 4-[2,5-dioxo-4-(4-hydroxyphenyl)-4-methyl-3-[(methylsulphonyl)methyl]imidazolidin-1-yl]-2-trifluoromethylbenzonitrile], under setting [1], the “KSchild (nM) potency” value stood at 200 nM.

As for `CC(=O)OCC#CCN1C(=O)N(c2ccc(Cl)c(Cl)c2)C(=O)C1(C)c1ccc(O)cc1` (centres unmarked) [Example 223, 4-[1-(3,4-dichlorophenyl)-2,5-dioxo-4-methyl-4-(4-hydroxyphenyl)imidazolidin-3-yl]-2-butynyl acetate], the EC50 amounted to 12.3 nM. Also, under setting [1], the “KSchild (nM) potency” value worked out at 12.25 nM.

`COC(=O)CN1C(=O)N(c2ccc(C#N)c(C(F)(F)F)c2)C(=O)C1(C)c1ccc(O)cc1` (centres unmarked) [Example 227, 4-[2,5-dioxo-4-(4-hydroxyphenyl)-3-[(methoxycarbonyl)methyl]-4-methylimidazolidin-1-yl]-2-trifluoromethylbenzonitrile]: the “KSchild (nM) potency” value worked out at 3.46 nM.

`CC1(c2ccc(O)cc2)C(=O)N(c2ccc(C#N)c(C(F)(F)F)c2)C(=O)N1CO` (centres unmarked) [Example 228.1, 4-[2,5-dioxo-3-hydroxymethyl-4-(4-hydroxyphenyl)-4-methylimidazolidin-1-yl]-2-trifluoromethylbenzonitrile]: the “KSchild (nM) potency” value turned out to be 150 nM.

In the case of `CC1(c2ccc(O)cc2)C(=O)N(c2ccc(C#N)c(C(F)(F)F)c2)C(=O)N1CC(N)=O` (centres unmarked) [Example 231, 4-[3-[(aminocarbonyl)methyl]-2,5-dioxo-4-(4-hydroxyphenyl)-4-methylimidazolidin-1-yl]-2-trifluoromethylbenzonitrile], the “KSchild (nM) potency” value was 60 nM.

With `CCC(=O)CN1C(=O)N(c2ccc(C#N)c(C(F)(F)F)c2)C(=O)C1(C)c1ccc(O)cc1` (centres unmarked) [Example 233, 4-[2,5-dioxo-4-(4-hydroxyphenyl)-4-methyl-3-(2-oxobutyl)imidazolidin-1-yl]-2-trifluoromethylbenzonitrile], the “KSchild (nM) potency” value worked out at 2.45 nM.

Turning to `COC(=O)CCN1C(=O)N(c2ccc(C#N)c(C(F)(F)F)c2)C(=O)C1(C)c1ccc(O)cc1` (centres unmarked) [Example 234, 4-[2,5-dioxo-4-(4-hydroxyphenyl)-3-[2-(methoxycarbonyl)ethyl]-4-methylimidazolidin-1-yl]-2-trifluoromethylbenzonitrile], the “KSchild (nM) potency” value is 15 nM.

As to `CC(=O)CN1C(=O)N(c2ccc(C#N)c(C(F)(F)F)c2)C(=O)C1(C)c1ccc(O)cc1` (centres unmarked) [Example 235, 4-[2,5-dioxo-4-(4-hydroxyphenyl)-4-methyl-3-(2-oxopropyl)imidazolidin-1-yl]-2-trifluoromethylbenzonitrile], the “KSchild (nM) potency” value is listed as 8 nM.

As for `CCOC(=O)CCN1C(=O)N(c2ccc(C#N)c(C(F)(F)F)c2)C(=O)C1(C)c1ccc(O)cc1` (centres unmarked) [Example 236, 4-[2,5-dioxo-3-[2-(ethoxycarbonyl)ethyl]-4-(4-hydroxyphenyl)-4-methylimidazolidin-1-yl]-2-trifluoromethylbenzonitrile], the “KSchild (nM) potency” value was determined as 15 nM.

As to `CC1(c2ccc(O)cc2)C(=O)N(c2ccc(C#N)c(C(F)(F)F)c2)C(=O)N1CC#N` (centres unmarked) [Example 237, 4-[3-(cyanomethyl)-2,5-dioxo-4-(4-hydroxyphenyl)-4-methylimidazolidin-1-yl]-2-trifluoromethylbenzonitrile], the “KSchild (nM) potency” value was determined as 8 nM.

As for `COCCOCN1C(=O)N(c2ccc(C#N)c(C(F)(F)F)c2)C(=O)C1(C)c1ccc(O)cc1` (centres unmarked) [Example 238, 4-[2,5-dioxo-4-(4-hydroxyphenyl)-3-[(2-methoxyethoxy)methyl]-4-methylimidazolidin-1-yl]-2-trifluoromethylbenzonitrile], the “KSchild (nM) potency” value is recorded as 15 nM.

With `CC1(c2ccc(O)cc2)C(=O)N(c2ccc(C#N)c(C(F)(F)F)c2)C(=O)N1CCO` (centres unmarked) [Example 239, 4-[2,5-dioxo-3-(2-hydroxyethyl)-4-(4-hydroxyphenyl)-4-methylimidazolidin-1-yl]-2-trifluoromethylbenzonitrile], the “KSchild (nM) potency” value is on record as 10 nM.

Turning to `CC1(c2ccc(O)cc2)C(=O)N(c2ccc(Cl)c(Cl)c2)C(=O)N1CC#CCO` (centres unmarked) [Example 242, 1-(3,4-dichlorophenyl)-3-(4-hydroxy-2-butynyl)-4-(4-hydroxyphenyl)-4-methylimidazolidine-2,5-dione], the EC50 amounted to 12.3 nM. In addition, under setting [1], the “KSchild (nM) potency” value is on record as 12.25 nM.

With `CC1(c2ccc(O)cc2)C(=O)N(c2ccc(C#N)c(C(F)(F)F)c2)C(=O)N1CC#CCO` (centres unmarked) [Example 243, 4-[2,5-dioxo-3-(4-hydroxy-2-butynyl)-4-(4-hydroxyphenyl)-4-methylimidazolidinyl-1-yl]-2-trifluoromethylbenzonitrile], the “KSchild (nM) potency” value stood at 4.56 nM.

In the case of `CC1(c2ccc(O)cc2)C(=O)N(c2ccc(C#N)c(C(F)(F)F)c2)C(=O)N1S(C)(=O)=O` (centres unmarked) [Example 243.1, 4-[2,5-dioxo-4-(4-hydroxyphenyl)-4-methyl-3-(methylsulphonyl)imidazolidin-1-yl]-2-trifluoromethylbenzonitrile], the “KSchild (nM) potency” value turned out to be 80 nM.

Regarding `Cc1ccc(S(=O)(=O)N2C(=O)N(c3ccc(C#N)c(C(F)(F)F)c3)C(=O)C2(C)c2ccc(O)cc2)cc1` (centres unmarked) [Example 243.2, 4-[2,5-dioxo-4-(4-hydroxyphenyl)-4-methyl-3-[(4-methylphenyl)sulphonyl]imidazolidin-1-yl]-2-trifluoromethylbenzonitrile], the “KSchild (nM) potency” value is recorded as 150 nM.

In the case of `CN1C(=O)N(c2ccc(C#N)c(C(F)(F)F)c2)C(=O)C1(C)c1ccc(OCCO)cc1` (centres unmarked) [Example 343], the “KSchild (nM) potency” value worked out at 60 nM.

(Values after US8168667B2 (Galapagos NV, priority 2006, dated 2012).)
